This is an account of results in patent US20120088769A1, “SALTS OF ARYLSULFONAMIDE CCR3 ANTAGONISTS” (Axikin Pharmaceuticals, Inc., priority 2010, published 2012).

The nature of this series: Solubility assessment in water (aqueous solubility). It is filed as physicochemical. The following applies: thermodynamic from solid. As to the method:
Solubility assessment: A preweighed amount of powder of a salt was treated with water to target a nominal concentration of 50 mg/mL. If a clear solution was obtained, then the solubility was noted as ≧50 mg/mL. If a suspension was obtained, it was sonicated for 1 min, followed by vortex mixing for 30 sec, and centrifuged for 5 min. The mother liquor was siphoned off and assayed for content against a standard of the free base by HPLC.

In the case of `N#Cc1ccc(Sc2cc(Cl)cc(Cl)c2)c(S(=O)(=O)N2CCN(C3CCCC3)CC2)c1` [Cmpd 5, 3-(4-cyclopentylpiperazin-1-ylsulfonyl)-4-(3,5-dichlorophenylthio)-benzonitrile], the solubility at 1.5 min (Free base) is under 10 µg/mL; the solubility at 1.5 min (HCl salt) was 110 µg/mL; the solubility at 1.5 min (Mesylate salt) turned out to be 230 µg/mL; the solubility at 1.5 min (Phosphate salt) was found to be 10000 µg/mL; the solubility at 1.5 min (Sulfate salt) was determined as 1200 µg/mL.
Take `CN1CCN(CCNC(=O)NC2CCN(S(=O)(=O)c3cc(C#N)ccc3Oc3cc(Cl)cc(Cl)c3)CC2)CC1` [Cmpd 8, 1-(1-(5-cyano-2-(3,5-dichlorophenoxy)phenylsulfonyl)piperidin-4-yl)-3-(2-(4-methylpiperazin-1-yl)ethyl)urea]: the solubility at 1.5 min is under 10 µg/mL (Free base); 1400 µg/mL (HCl salt); 10900 µg/mL (Mesylate salt); 2400 µg/mL (Phosphate salt); 580 µg/mL (Sulfate salt).
Take `CC(C)N1CCN(S(=O)(=O)c2cc(C#N)ccc2Sc2cc(Cl)cc(Cl)c2)CC1` [Cmpd 4, 4-(3,5-dichlorophenylthio)-3-(4-isopropylpiperazin-1-ylsulfonyl)benzonitrile]: the solubility at 1.5 min (Camsylate salt) stood at 240 µg/mL; the solubility at 1.5 min (Free base) was under 10 µg/mL; the solubility at 1.5 min (HBr salt) was 200 µg/mL; the solubility at 1.5 min (HCl salt) is 800 µg/mL; the solubility at 1.5 min (Mesylate salt) is 23000 µg/mL; the solubility at 1.5 min (Sulfate salt) turned out to be 1100 µg/mL.
Take `CCN1CCN(S(=O)(=O)c2cc(C#N)ccc2Oc2cc(Cl)cc(Cl)c2)CC1` [Cmpd 2, 4-(3,5-dichlorophenoxy)-3-(4-ethylpiperazin-1-ylsulfonyl)benzonitrile]: the solubility at 1.5 min runs as follows: (Free base) under 10 µg/mL; (Mesylate salt) 270 µg/mL; (Phosphate salt) 120 µg/mL; (Sulfate salt) 230 µg/mL.
Regarding `CN1CCN(S(=O)(=O)c2cc(C#N)ccc2Sc2cc(Cl)cc(Cl)c2)CC1` [Cmpd 1, 4-(3,5-dichlorophenylthio)-3-(4-methylpiperazin-1-ylsulfonyl)benzonitrile], the solubility at 1.5 min was under 10 µg/mL (Free base); 400 µg/mL (HBr salt); 1360 µg/mL (HCl salt); 7260 µg/mL (Mesylate salt); 1700 µg/mL (Phosphate salt); 790 µg/mL (Sulfate salt). Also, the solubility at 1.5 min (Tartrate salt) was 450 µg/mL.
Take `CCN1CCN(S(=O)(=O)c2cc(C#N)ccc2Oc2cc(C)cc(C)c2)CC1` [Cmpd 3, 4-(3,5-dimethylphenoxy)-3-(4-ethylpiperazin-1-ylsulfonyl)benzonitrile]: the solubility at 1.5 min (Camsylate salt) amounted to 80 µg/mL; the solubility at 1.5 min (Free base) is under 10 µg/mL; the solubility at 1.5 min (HBr salt) is 30 µg/mL; the solubility at 1.5 min (HCl salt) turned out to be 330 µg/mL; the solubility at 1.5 min (Mesylate salt) is 200 µg/mL.
For `CCN1CCN(S(=O)(=O)c2cc([N+](=O)[O-])ccc2Oc2cc(Cl)cc(Cl)c2)CC1` [Cmpd 6, 1-(2-(3,5-dichlorophenoxy)-5-nitrophenylsulfonyl)-4-ethylpiperazine], the solubility at 1.5 min by setting is: (Camsylate salt) 250 µg/mL; (Free base) under 10 µg/mL; (HBr salt) 1000 µg/mL; (HCl salt) 1590 µg/mL; (Mesylate salt) 10000 µg/mL; (Phosphate salt) 1660 µg/mL. In addition, the solubility at 1.5 min (Sulfate salt) was determined as 600 µg/mL and the solubility at 1.5 min (Tosylate salt) was 300 µg/mL.
Consider `N#Cc1ccc(Oc2cc(Cl)cc(Cl)c2)c(S(=O)(=O)N2CCC(NC(=O)NCCN3CCOCC3)CC2)c1` [Cmpd 7, 1-(1-(5-cyano-2-(3,5-dichlorophenoxy)phenylsulfonyl)piperidin-4-yl)-3-(2-morpholinoethyl)urea], for which the solubility at 1.5 min reads like this: (Citrate salt) 800 µg/mL; (Free base) under 10 µg/mL; (HCl salt) 3670 µg/mL; (Mesylate salt) 3810 µg/mL; (Phosphate salt) 2910 µg/mL; (Sulfate salt) 2350 µg/mL.
